# Laboratory results from patent US6914045B2, “Glycopeptide antibiotics” (Wyeth Holdings Corporation, priority 2001, dated 2005).
# Columns and labels:
# Test in all cases: in vitro antibacterial evaluation, MIC by broth dilution
# Format in all cases: cell-based
# Escherichia coli = conditions: 18 hours at 35° C.
# How it was run: (§1)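 Step 1: dilute antibiotic across 64-0.06 μg/mL in Muller-Hinton II […]. Step 2: inoculate at 5×10^5 CFU/mL.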
# Enterococcus sp. = conditions: broth dilution, 18 hours at 35° C.
# How it was run: as §1
# Streptococcus sp. = conditions: broth dilution, 18 hours at 35° C.
# How it was run: as §1
# Staphylococcus sp. = conditions: broth dilution, 18 hours at 35° C.
# How it was run: as §1
structure (smiles),measurement,setting,value
CC(c1ccccc1)C1NC(=O)CNC(=O)C(CO)NC(=O)C(C(O)C2CNC(=N)N2C2OC(CO)C(O)C(O)C2O)NC(=O)C(C(O)C2CNC(=N)N2)NC(=O)C(Cc2ccc(OC3OC(CO)C(OC4OC(CO)C(O)C5OC(CC67CC8CC(CC(C8)C6)C7)OC45)C(O)C3O)cc2)NC1=O (stereo not shown) [Example 128],MIC Escherichia coli (ATCC 25922),Escherichia coli; strain ATCC 25922,32 µg/mL
same,MIC Escherichia coli (GC 4559),Escherichia coli; strain GC 4559,32 µg/mL
same,MIC Escherichia coli (GC 4560),Escherichia coli; strain GC 4560,4 µg/mL
same,MIC Enterococcus avium (GC 4558),Enterococcus sp.; Enterococcus avium (GC 4558),4 µg/mL
same,MIC Enterococcus faecalis (ATCC 29212),Enterococcus sp.; Enterococcus faecalis (ATCC 29212),4 µg/mL
same,MIC Enterococcus faecalis (GC 2242),Enterococcus sp.; Enterococcus faecalis (GC 2242),4 µg/mL
same,MIC Enterococcus faecalis (GC 2691),Enterococcus sp.; Enterococcus faecalis (GC 2691),4 µg/mL
same,MIC Enterococcus faecalis (GC 3059),Enterococcus sp.; Enterococcus faecalis (GC 3059),4 µg/mL
same,MIC Enterococcus faecalis (GC 4552),Enterococcus sp.; Enterococcus faecalis (GC 4552),4 µg/mL
same,MIC Enterococcus faecalis (GC 4553),Enterococcus sp.; Enterococcus faecalis (GC 4553),4 µg/mL
same,MIC Enterococcus faecalis (GC 4554),Enterococcus sp.; Enterococcus faecalis (GC 4554),4 µg/mL
same,MIC Enterococcus faecalis (GC 6189),Enterococcus sp.; Enterococcus faecalis (GC 6189),4 µg/mL
same,MIC Enterococcus faecium (GC 2243),Enterococcus sp.; Enterococcus faecium (GC 2243),4 µg/mL
same,MIC Enterococcus faecium (GC 4556),Enterococcus sp.; Enterococcus faecium (GC 4556),4 µg/mL
same,MIC Enterococcus faecium (GC 4557),Enterococcus sp.; Enterococcus faecium (GC 4557),4 µg/mL
same,MIC Enterococcus faecalis (ATCC 29212),Enterococcus sp.; strain ATCC 29212,4 µg/mL
same,MIC Enterococcus faecalis (GC 2242),Enterococcus sp.; strain GC 2242,4 µg/mL
same,MIC Enterococcus faecium (GC 2243),Enterococcus sp.; strain GC 2243,4 µg/mL
same,MIC Enterococcus faecalis (GC 2691),Enterococcus sp.; strain GC 2691,4 µg/mL
same,MIC Enterococcus faecalis (GC 3059),Enterococcus sp.; strain GC 3059,4 µg/mL
same,MIC Enterococcus faecalis (GC 4552),Enterococcus sp.; strain GC 4552,4 µg/mL
same,MIC Enterococcus faecalis (GC 4553),Enterococcus sp.; strain GC 4553,4 µg/mL
same,MIC Enterococcus faecalis (GC 4554),Enterococcus sp.; strain GC 4554,4 µg/mL
same,MIC Enterococcus faecium (GC 4556),Enterococcus sp.; strain GC 4556,4 µg/mL
same,MIC Enterococcus faecium (GC 4557),Enterococcus sp.; strain GC 4557,4 µg/mL
same,MIC Enterococcus avium (GC 4558),Enterococcus sp.; strain GC 4558,4 µg/mL
same,MIC Enterococcus faecalis (GC 6189),Enterococcus sp.; strain GC 6189,4 µg/mL
same,MIC Streptococcus agalactiae (GC 4564),Streptococcus sp.; Streptococcus agalactiae (GC 4564),0.25 µg/mL
same,MIC Streptococcus pneumoniae (ATCC 6301),Streptococcus sp.; Streptococcus pneumoniae (ATCC 6301),0.25 µg/mL
same,MIC Streptococcus pneumoniae (GC 1894),Streptococcus sp.; Streptococcus pneumoniae (GC 1894),<0.06 µg/mL
same,MIC Streptococcus pneumoniae (GC 4565),Streptococcus sp.; Streptococcus pneumoniae (GC 4565),0.12 µg/mL
same,MIC Streptococcus pyogenes (GC 4563),Streptococcus sp.; Streptococcus pyogenes (GC 4563),0.5 µg/mL
same,MIC Streptococcus pneumoniae (ATCC 6301),Streptococcus sp.; strain ATCC 6301,0.25 µg/mL
same,MIC Streptococcus pneumoniae (GC 1894),Streptococcus sp.; strain GC 1894,<0.06 µg/mL
same,MIC Streptococcus pyogenes (GC 4563),Streptococcus sp.; strain GC 4563,0.5 µg/mL
same,MIC Streptococcus agalactiae (GC 4564),Streptococcus sp.; strain GC 4564,0.25 µg/mL
same,MIC Streptococcus pneumoniae (GC 4565),Streptococcus sp.; strain GC 4565,0.12 µg/mL
same,MIC Staphylococcus aureus (ATCC 29213),Staphylococcus sp.,2 µg/mL
same,MIC Staphylococcus aureus (GC 1131),Staphylococcus sp.,4 µg/mL
same,MIC Staphylococcus aureus (GC 3051),Staphylococcus sp.,2 µg/mL
same,MIC Staphylococcus aureus (GC 3053),Staphylococcus sp.,2 µg/mL
same,MIC Staphylococcus aureus (GC 4541),Staphylococcus sp.,2 µg/mL
same,MIC Staphylococcus aureus (GC 4542),Staphylococcus sp.,2 µg/mL
same,MIC Staphylococcus aureus (GC 4544),Staphylococcus sp.,4 µg/mL
same,MIC Staphylococcus aureus (GC 4545),Staphylococcus sp.,2 µg/mL
same,MIC Staphylococcus aureus (GC 1131),"Staphylococcus sp.; inoculum 5×10^5 CFU/mL, strain GC 1131",4 µg/mL
same,MIC Staphylococcus aureus (ATCC 29213),Staphylococcus sp.; strain ATCC 29213,2 µg/mL
same,MIC Staphylococcus aureus (GC 3051),Staphylococcus sp.; strain GC 3051,2 µg/mL
same,MIC Staphylococcus aureus (GC 3053),Staphylococcus sp.; strain GC 3053,2 µg/mL
same,MIC Staphylococcus aureus (GC 4541),Staphylococcus sp.; strain GC 4541,2 µg/mL
same,MIC Staphylococcus aureus (GC 4542),Staphylococcus sp.; strain GC 4542,2 µg/mL
same,MIC Staphylococcus aureus-SMITH (GC 4543),Staphylococcus sp.; strain GC 4543,2 µg/mL
same,MIC Staphylococcus aureus (GC 4544),Staphylococcus sp.; strain GC 4544,4 µg/mL
same,MIC Staphylococcus aureus (GC 4545),Staphylococcus sp.; strain GC 4545,2 µg/mL
same,MIC Staphylococcus haemolyticus (GC 4546),Staphylococcus sp.; strain GC 4546,2 µg/mL
same,MIC Coagulase Negative Staphylococcus (GC 4547),Staphylococcus sp.; strain GC 4547,4 µg/mL
same,MIC Coagulase Negative Staphylococcus (GC 4548),Staphylococcus sp.; strain GC 4548,2 µg/mL
same,MIC Coagulase Negative Staphylococcus (GC 4549),Staphylococcus sp.; strain GC 4549,2 µg/mL
same,MIC Coagulase Negative Staphylococcus (GC 4551),Staphylococcus sp.; strain GC 4551,4 µg/mL
same,MIC Coagulase Negative Staphylococcus (GC 6257),Staphylococcus sp.; strain GC 6257,2 µg/mL
same,MIC Staphylococcus aureus-SMITH (GC 4543),Staphylococcus sp.; strain SMITH GC 4543,2 µg/mL
